Patent US11952364B2, “TRK inhibitors useful as anticancer drugs” (TYLIGAND BIOSCIENCE (SHANGHAI) LIMITED, priority 2018, dated 2024)

The compounds below were run on Ba/F3 ETV6-NTRK3-G696C cells (assay: Proliferation of Ba/F3 ETV6-NTRK3-G696C cells (CellTiter-Glo)). Conditions: Mus musculus, BaF3, 72 h, Table 7; 72 hours; read-out: Ba/F3 ETV6-NTRK3-G696C, IC50.
Assay type: cell-based, mouse
Text: Ba/F3 ETV6-NTRK3-G696C is a stable transgenic cell line constructed by KYinno Biotechnology Co., Ltd. on mouse primary B cell Ba/F3 wherein NTRK3 is highly expressed with a mutation of G at position […] to C and fused with ETV6 to form ETV6-NTRK3. • [Test method]: Promega's CellTiter-Glo® Luminescent Cell Viability Assay kit was used to evaluate the inhibitory activity of the compounds on the proliferation of Ba/F3 ETV6-NTRK3-G696C cells. • [Instrument]: Spectramax M3 multifunctional microplate reader from Molecular Devices. • [Test materials]: Ba/F3 ETV6-NTRK3-G696C cell line (constructed by KYinno Biotechnology Co., Ltd. (Beijing)), 96-well transparent flat-bottomed black-walled cell culture plate (Corning, cat #3603), RPMI-1640 media (GE, product number #SH30027.01), fetal bovine serum FBS (Thermo Fisher, cat #10099-141), CellTiter-Glo® Luminescent Cell Viability Assay kit (Promega, cat #G7572), PBS (Solarbio, cat #P1020), DMSO (Sigma, cat #D2650). • [Experimental procedure]: When resuscitating Ba/F3 ETV6-NTRK3-G696C cells, • the freezing tube was quickly shaken in a 37° C. water bath to melt within 1 minute. The thawed cell suspension was mixed uniformly with RPMI1640 medium containing 10% FBS, centrifuged at 1000 rpm for 5 minutes, and the supernatant discarded. 5 mL of complete medium (RPMI1640 medium with 10% FBS) was taken to resuspend the cell pellets, charged into a cell culture flask with a bottom area of 25 cm^2, and incubated in a cell incubator at 37° C., 95% humidity and 5% CO2. Cells were allowed to passage when the number of cells reached about 10^6 cells/mL. For cell passage, the old cell suspension was directly pipetted evenly, 1/5 of the cell suspension was kept, 4 mL of new complete medium was added, after pipetting evenly, the cell flask was placed in the cell incubator for further culturing. Cell plating was performed when the number of cells reached about 10^6 cells/mL again. For cell plating, 1/5 of the cell suspension was kept for further culturing as in the cell passage method, and the remaining 4/5 of the cell suspension was placed in a 15 mL centrifuge tube, detected for cell viability by Trypan blue exclusion method to ensure that cell viability was above 90%. A cell suspension with a density of 5.56×10^4 viable cells/mL was prepared with complete medium, and 90 μL of such cell suspension was added to a 96-well cell culture plate to obtain the cell density of 5000 viable cells/mL in the cell culture plate. A control group containing no cells, no compound and only complete medium (i.e. culture medium control) and a control group containing no compound but containing cells (i.e. cell control) were set. The cell plate was placed in a cell incubator overnight. The 10 mM compound stock solution in DMSO was first serially diluted with DMSO at a dilution factor of 3.16 times, to obtain 9 concentrations, and the 10th concentration was set as DMSO control without compound. Then, PBS was used to dilute the DMSO solutions of compounds of different concentrations, at a dilution factor of 100 times, so that the DMSO concentration in the compound solution of each concentration was 1%. Finally, 10 μL of each of the above solutions was added to the corresponding cell culture plate, so that the initial compound concentration was 10 μM, with the remaining concentrations being successively diluted at a dilution factor of 3.16 times, and the DMSO content in the cell culture plate was 0.1%. The cell plate was placed in a cell incubator and cultured for 72 hours. For endpoint detection, the CellTiter-Glo reagent was melted, and the cell plate was moved to room temperature to equilibrate for 30 minutes, added with 100 μL of CellTiter-Glo for each well, and shaken on an orbital shaker for 5 minutes to fully lyse the cells. […]
Compound `O=C(Nc1cnn2ccc(N3CCC[C@@H]3c3cc(F)ccc3F)nc12)N1CC[C@H](O)C1` [LOXO-101, Larotrectinib, reference compound] has an IC50 of 1890 nM.
`CC(C)c1ccc(C(=O)Nc2ccc(Oc3cc4cnn(C)c4cc3-c3cn[nH]c3)c(F)c2)c(=O)n1-c1ccc(F)cc1` [Example 6, N-(3-fluoro-4-(1-methyl-6-(1H-pyrazol-4-yl)-1H-indazol-5-yloxy)phenyl)-1-(4-fluorophenyl)-6-isopropyl-2-oxo-1,2-dihydropyridine-3-carboxamide] showed an IC50 of 16 nM.
Work on `CCc1ccc(C(=O)Nc2ccc(Oc3cc4cnn(C)c4cc3-c3cn[nH]c3)c(F)c2)c(=O)n1-c1ccc(F)cc1` [Example 5, N-(3-fluoro-4-(1-methyl-6-(1H-pyrazol-4-yl)-1H-indazol-5-yloxy)phenyl)-1-(4-fluorophenyl)-6-ethyl-2-oxo-1,2-dihydropyridine-3-carboxamide] yielded an IC50 of 6.8 nM.
With `Cn1ncc2cc(Oc3ccc(NC(=O)c4ccc(C5CC5)n(-c5ccc(F)cc5)c4=O)cc3F)c(-c3cn[nH]c3)cc21` [Example 2, N-(3-fluoro-4-(1-methyl-6-(1H-pyrazol-4-yl)-1H-indazol-5-yloxy)phenyl)-1-(4-fluorophenyl)-6-cyclopropyl-2-oxo-1,2-dihydmpyridine-3-carboxamide] the IC50 was 20 nM.
`CCn1ncc2cc(Oc3ccc(NC(=O)c4ccc(C)n(-c5ccc(F)cc5)c4=O)cc3F)c(-c3cn[nH]c3)cc21` [Example 3, N-(3-fluoro-4-(1-ethyl-6-(1H-pyrazol-4-yl)-1H-indazol-5-yloxy)phenyl)-1-(4-fluorophenyl)-6-methyl-2-oxo-1,2-dihydmpyridine-3-carboxamide] showed an IC50 of 18 nM.
With `Cc1ccc(C(=O)Nc2ccc(Oc3cc4cnn(C(C)C)c4cc3-c3cn[nH]c3)c(F)c2)c(=O)n1-c1ccc(F)cc1` [Example 4, N-(3-fluoro-4-(1-isopropyl-6-(1H-pyrazol-4-yl)-1H-indazol-5-yloxy)phenyl)-1-(4-fluorophenyl)-6-methyl-2-oxo-1,2-dihydmpyridine-3-carboxamide] the IC50 was 34 nM.

Same assay, conditions: Mus musculus, BaF3, Table 7-1; separate test; read-out: Ba/F3 ETV6-NTRK3-G696C, IC50
Compound `CCn1ncc2cc(Oc3ccc(NC(=O)c4ccc(OC)n(-c5ccc(F)cc5)c4=O)cc3F)c(-c3cn[nH]c3)cc21` [Example 23, N-(3-fluoro-4-(1-ethyl-6-(1H-pyrazol-4-yl)-1H-indazol-5-yloxy)phenyl)-1-(4-fluorophenyl)-6-methoxy-2-oxo-1,2-dihydropyridine-3-carboxamide] has an IC50 of 11 nM.
`CCn1ncc2cc(Oc3ccc(NC(=O)c4ccc(C5CC5)n(-c5ccc(F)cc5)c4=O)cc3F)c(-c3cn[nH]c3)cc21` [Example 19, N-(3-fluoro-4-(1-ethyl-6-(1H-pyrazol-4-yl)-1H-indazol-5-yloxy)phenyl)-1-(4-fluorophenyl)-6-cyclopropyl-2-oxo-1,2-dihydropyridine-3-carboxamide] was tested, and the IC50 was 14 nM.
`CCc1ccc(C(=O)Nc2ccc(Oc3cc4cnn(CC)c4cc3-c3cn[nH]c3)c(F)c2)c(=O)n1-c1ccc(F)cc1` [Example 18, N-(3-fluoro-4-(1-ethyl-6-(1H-pyrazol-4-yl)-1H-indazol-5-yloxy)phenyl)-1-(4-fluorophenyl)-6-ethyl-2-oxo-1,2-dihydropyridine-3-carboxamide] was tested, and the IC50 was 12 nM.

Same assay, conditions: Mus musculus, BaF3, Table 7-2; separate test; read-out: Ba/F3 ETV6-NTRK3-G696C, IC50
`Cn1ncc2cc(Oc3ccc(NC(=O)c4ccc(OC5CC5)n(-c5ccc(F)cc5)c4=O)cc3F)c(-c3cn[nH]c3)cc21` [Example 15, N-(3-fluoro-4-(1-methyl-6-(1H-pyrazol-4-yl)-1H-indazol-5-yloxy)phenyl)-1-(4-fluorophenyl)-6-cyclopropoxy-2-oxo-1,2-dihydropyridine-3-carboxamide] gave an IC50 of 1.9 nM.
With `CSc1ccc(C(=O)Nc2ccc(Oc3cc4cnn(C)c4cc3-c3cn[nH]c3)c(F)c2)c(=O)n1-c1ccc(F)cc1` [Example 11, N-(3-fluoro-4-(1-methyl-6-(1H-pyrazol-4-yl)-1H-indazol-5-yloxy)phenyl)-1-(4-fluorophenyl)-6-methylthio-2-oxo-1,2-dihydropyidine-3-carboxamide] the IC50 was 1.8 nM.
`CC(C)Oc1ccc(C(=O)Nc2ccc(Oc3cc4cnn(C)c4cc3-c3cn[nH]c3)c(F)c2)c(=O)n1-c1ccc(F)cc1` [Example 16, N-(3-fluoro-4-(1-methyl-6-(1H-pyrazol-4-yl)-1H-indazol-5-yloxy)phenyl)-1-(4-fluorophenyl)-6-isopropoxy-2-oxo-1,2-dihydropyridine-3-carboxamide] was tested, and the IC50 was 1.2 nM.
In the case of `CCOc1ccc(C(=O)Nc2ccc(Oc3cc4cnn(C)c4cc3-c3cn[nH]c3)c(F)c2)c(=O)n1-c1ccc(F)cc1` [Example 14, N-(3-fluoro-4-(1-methyl-6-(1H-pyrazol-4-yl)-1H-indazol-5-yloxy)phenyl)-1-(4-fluorophenyl)-6-ethoxy-2-oxo-12-dihydropyridine-3-carboxamide], the IC50 is reported as 1.6 nM.
`CCn1ncc2cc(Oc3ccc(NC(=O)c4ccc(OC(C)C)n(-c5ccc(F)cc5)c4=O)cc3F)c(-c3cn[nH]c3)cc21` [Example 26, N-(3-fluoro-4-(1-ethyl-6-(1H-pyrazol-4-yl)-1H-indazol-5-yloxy)phenyl)-1-(4-fluorophenyl)-6-isopropoxy-2-oxo-1,2-dihydropyridine-3-carboxamide] was tested, and the IC50 was 3.1 nM.

Same assay, conditions: Mus musculus, BaF3, Table 9; read-out: Ba/F3 ETV6-NTRK3-G696C cell proliferation inhibitory activity (IC50)
With `COc1ccc(C(=O)Nc2ccc(Oc3cc4cnn5c4c(c3-c3cn[nH]c3)CC5)c(F)c2)c(=O)n1-c1ccc(F)cc1` [Example 28, N-(4-((5-(1H-pyrazol-4-yl)-6,7-dihydropyrrolo[3,2,1-hi]-indazol-4-yl)oxy)-3-fluorophenyl)-1-(4-fluorophenyl)-6-methoxy-2-oxo-1,2-dihydropyidine-3-carboxamide] the IC50 was 3.6 nM.
For `CC(C)Oc1ccc(C(=O)Nc2ccc(Oc3cc4cnn5c4c(c3-c3cn[nH]c3)CC5)c(F)c2)c(=O)n1-c1ccc(F)cc1` [Example 34, N-(4-((5-(1H-pyrazol-4-yl)-6,7-dihydropyrrolo[3,2,1-hi]-indazol-4-yl)oxy)-3-fluorophenyl)-1-(4-fluorophenyl)-6-isopropoxy-2-oxo-12-dihydropyrndine-3-carboxamide], the IC50 was 4.8 nM.
In the case of `CCOc1ccc(C(=O)Nc2ccc(Oc3cc4cnn5c4c(c3-c3cn[nH]c3)CC5)c(F)c2)c(=O)n1-c1ccc(F)cc1` [Example 32, N-(4-((5-(1H-pyrazol-4-yl)-6,7-dihydropyrrolo[3,2,1-hi]-indazol-4-yl)oxy)-3-fluorophenyl)-6-ethoxy-1-(4-fluorophenyl)-2-oxo-12-dihydropyridine-3-carboxamide], the IC50 is reported as 4.7 nM.
For `Cc1ccc(C(=O)Nc2ccc(Oc3cc4cnn5c4c(c3-c3cn[nH]c3)CC5)c(F)c2)c(=O)n1-c1ccc(F)cc1` [Example 31, N-(4-((5-(1H-pyrazol-4-yl)-6,7-dihydropyrrolo[3,2,1-hi]-indazol-4-yl)oxy)-3-fluorophenyl)-1-(4-fluorophenyl)-6-methyl-2-oxo-1,2-dihydropyridine-3-carboxamide], the IC50 was 5.3 nM.

Same assay, conditions: Table 7-2; separate test; read-out: Ba/F3 ETV6-NTRK3-G696C, IC50
With `CCOc1ccc(C(=O)Nc2ccc(Oc3cc4cnn(CC)c4cc3-c3cn[nH]c3)c(F)c2)c(=O)n1-c1ccc(F)cc1` [Example 24, N-(3-fluoro-4-(1-ethyl-6-(1H-pyrazol-4-yl)-1H-indazol-5-yloxy)phenyl)-1-(4-fluorophenyl)-6-ethoxy-2-oxo-12-dihydropyridine-3-carboxamide] the IC50 was 3.5 nM.
